What follows are molecules tested against T1, CDK1/Cyclin B (Homo sapiens, UniProt P06493) (assay: Enzymatic assay for CDK1 (FRET based LANCE Ultra kinase assay)). Conditions: read-out: CDK1 enzymatic activity (IC50 range).
T1 construct: purchased Invitrogen PR4768C
Assay type: biochemical
Procedure: (§1) Enzymatic Binding Assay Protocol for CDK1, CDK2, CDK5 and CDK7
(§2) Inhibition activity of the respective compound on CDK kinase under Km value of ATP was tested in FRET based The LANCE® Ultra kinase assay (Perkin Elmer), which uses a ULight™-labeled peptide substrate and an appropriate Europium-labeled anti-phospho-antibody. Test compounds were made with DMSO solutions, and then 4-fold serial dilutions for 8 doses were prepared using automated liquid handler (POD810, LABCYTE) and 80 nL/well of diluted compound solutions were added into the 384-well plates (Greiner, Cat #784075). And then 68 nM of ULight-MBP peptide (Perkin Elmer, Cat #TRF0109-M) and 5 ul/well of ATP (Sigma, Cat #A7699) were added to the plate. After 1 min centrifugation at 1000 rpm, Purified CDKs/Cyclin complex were added following concentrations respectively. 24 uM for CDK1/Cyclin B (Invitrogen, Cat #PR4768C), 22 uM for CDK2/Cyclin A (Invitrogen, Cat #PV6290), 10 uM for CDK5/p25 (Invitrogen, Cat #PR8543B) and […] for CDK7/Cyclin H/MNAT1 (Invitrogen, Cat #PR6749B) were added to the each corresponding plate for CDK1, CDK2, CDK5 and CDK7. Incubate at 23° C. for 60 min and then Eu-labeled anti-phospho-Myelin Basic Protein (PE, Cat #TRF0201-M) and EDTA (Invitrogen, Cat #15575038) mixture in Lance Detection Buffer (Perkin Elmer, Cat #CR97100) was added in each well. After additional incubation at 23° C. for 60 min, test articles were measured the fluorescence using Envision leader (Perkin Elmer, USA) [Laser as excitation light; […] as the first and the second emission filter]. Data was analyzed using XL Fit software.

T1 sequence (P06493 whole entry): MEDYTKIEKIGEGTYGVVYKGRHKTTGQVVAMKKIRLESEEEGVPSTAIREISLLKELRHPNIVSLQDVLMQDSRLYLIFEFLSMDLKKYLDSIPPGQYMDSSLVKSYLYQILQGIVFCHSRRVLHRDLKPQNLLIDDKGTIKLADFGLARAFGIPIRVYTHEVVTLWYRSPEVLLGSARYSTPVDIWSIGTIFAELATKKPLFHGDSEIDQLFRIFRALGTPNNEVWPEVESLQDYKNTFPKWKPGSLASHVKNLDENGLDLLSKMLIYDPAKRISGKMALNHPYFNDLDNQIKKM
T1 sequence (P14635 whole entry partner): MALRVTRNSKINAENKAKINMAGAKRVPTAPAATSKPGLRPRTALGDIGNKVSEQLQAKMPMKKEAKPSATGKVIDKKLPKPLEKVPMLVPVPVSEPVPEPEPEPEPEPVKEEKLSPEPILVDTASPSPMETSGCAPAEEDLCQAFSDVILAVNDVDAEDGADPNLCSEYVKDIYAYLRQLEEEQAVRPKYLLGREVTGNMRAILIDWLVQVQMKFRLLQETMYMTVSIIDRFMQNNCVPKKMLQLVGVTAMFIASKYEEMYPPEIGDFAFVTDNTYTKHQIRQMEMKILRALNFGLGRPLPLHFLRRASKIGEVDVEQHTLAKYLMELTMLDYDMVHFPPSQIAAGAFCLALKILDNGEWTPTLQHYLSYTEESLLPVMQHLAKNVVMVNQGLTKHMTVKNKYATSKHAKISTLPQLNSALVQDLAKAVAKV

Row | SMILES | IC50
1 | CNC(=O)c1cccnc1CNc1nc(N2CCC(N)CC2)nc2c(C(C)(C)C)cnn12 [Compound 15] | > 1 µM
2 | CC(C)c1cnn2c(NCc3ccccc3-n3cccn3)nc([C@H]3CC[C@H](N)CC3)nc12 [Compound 25] | 0.1 to 1 µM
3 | CC(C)c1cnn2c(NCc3c[nH]c4ccccc34)nc(N3CCC(N)CC3)nc12 [Compound 28] | > 1 µM

More lines, now with the values ahead:

Row | IC50 | SMILES
4 | 0.1 to 1 µM | NC1CCN(c2nc(NCc3ccccc3-n3cccn3)n3ncc(C4CCCC4)c3n2)CC1 [Compound 12]
5 | 0.1 to 1 µM | CC(C)c1cnn2c(NCc3cccc4ncn(C)c34)nc(N3CCC(N)CC3)nc12 [Compound 16]

These molecules were tested against T2, CDK7/Cyclin H/MNAT1 (Homo sapiens, UniProt P50613) (assay: Enzymatic assay for CDK7 (FRET based LANCE Ultra kinase assay)). Conditions: CDK7 over CDK1.
T2 construct: purchased Invitrogen PR6749B
Assay type: biochemical
Procedure: as §1
Inhibition activity of the respective compound on CDK kinase under Km value of ATP was tested in FRET based The LANCE® Ultra kinase assay (Perkin Elmer), which uses a ULight™-labeled peptide substrate and an appropriate Europium-labeled anti-phospho-antibody. […] After 1 min centrifugation at 1000 rpm, Purified CDKs/Cyclin complex were added following concentrations respectively. […] Data was analyzed using XL Fit software.

T2 sequence (P50613 whole entry): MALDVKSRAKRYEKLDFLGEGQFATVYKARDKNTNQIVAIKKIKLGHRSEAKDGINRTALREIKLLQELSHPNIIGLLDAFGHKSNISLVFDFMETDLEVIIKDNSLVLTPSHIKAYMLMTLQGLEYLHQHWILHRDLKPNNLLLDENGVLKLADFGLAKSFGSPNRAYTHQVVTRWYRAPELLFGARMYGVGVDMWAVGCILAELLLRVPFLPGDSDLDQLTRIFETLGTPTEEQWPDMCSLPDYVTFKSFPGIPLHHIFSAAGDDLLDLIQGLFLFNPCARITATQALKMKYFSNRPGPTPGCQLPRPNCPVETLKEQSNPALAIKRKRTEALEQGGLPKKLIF
T2 sequence (P51946 whole entry partner): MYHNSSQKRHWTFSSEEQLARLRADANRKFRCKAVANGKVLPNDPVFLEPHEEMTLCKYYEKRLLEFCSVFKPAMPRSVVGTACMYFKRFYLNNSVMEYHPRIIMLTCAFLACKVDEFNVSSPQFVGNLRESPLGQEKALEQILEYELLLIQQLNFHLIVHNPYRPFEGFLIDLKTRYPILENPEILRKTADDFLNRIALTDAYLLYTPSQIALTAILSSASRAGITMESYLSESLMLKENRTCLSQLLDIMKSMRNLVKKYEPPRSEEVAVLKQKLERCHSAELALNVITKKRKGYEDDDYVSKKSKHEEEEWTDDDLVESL
T2 sequence (P51948 whole entry partner): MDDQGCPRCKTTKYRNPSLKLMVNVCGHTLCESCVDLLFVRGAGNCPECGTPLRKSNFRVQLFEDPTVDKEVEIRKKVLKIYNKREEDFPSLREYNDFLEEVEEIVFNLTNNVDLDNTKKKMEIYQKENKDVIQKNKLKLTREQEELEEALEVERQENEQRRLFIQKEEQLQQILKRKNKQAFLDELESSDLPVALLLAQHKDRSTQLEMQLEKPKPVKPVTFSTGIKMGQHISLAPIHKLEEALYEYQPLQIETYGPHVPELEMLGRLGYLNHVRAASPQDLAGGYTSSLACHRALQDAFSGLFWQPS

Row | SMILES | CDK1/CDK7: Selectivity of CDK7 inhibition over CDK1 inhibition
6 | NC1CCN(c2nc(NCc3ccccc3-n3cccn3)n3ncc(C4CCCC4)c3n2)CC1 [Compound 12] | B (B=less than 200 fold, but greater than 20 fold)
7 | CNC(=O)c1cccnc1CNc1nc(N2CCC(N)CC2)nc2c(C(C)(C)C)cnn12 [Compound 15] | A (A=greater than 200 fold)
8 | CC(C)c1cnn2c(NCc3cccc4ncn(C)c34)nc(N3CCC(N)CC3)nc12 [Compound 16] | B (B=less than 200 fold, but greater than 20 fold)
9 | CC(C)c1cnn2c(NCc3ccccc3-n3cccn3)nc([C@H]3CC[C@H](N)CC3)nc12 [Compound 25] | B (B=less than 200 fold, but greater than 20 fold)
10 | CC(C)c1cnn2c(NCc3c[nH]c4ccccc34)nc(N3CCC(N)CC3)nc12 [Compound 28] | B (B=less than 200 fold, but greater than 20 fold)

Same assay, conditions: CDK7 over CDK2

Row | SMILES | CDK2/CDK7: Selectivity of CDK7 inhibition over CDK2 inhibition
11 | NC1CCN(c2nc(NCc3ccccc3-n3cccn3)n3ncc(C4CCCC4)c3n2)CC1 [Compound 12] | B (B=less than 200 fold, but greater than 20 fold)
12 | CNC(=O)c1cccnc1CNc1nc(N2CCC(N)CC2)nc2c(C(C)(C)C)cnn12 [Compound 15] | A (A=greater than 200 fold)
13 | CC(C)c1cnn2c(NCc3cccc4ncn(C)c34)nc(N3CCC(N)CC3)nc12 [Compound 16] | B (B=less than 200 fold, but greater than 20 fold)
14 | CC(C)c1cnn2c(NCc3ccccc3-n3cccn3)nc([C@H]3CC[C@H](N)CC3)nc12 [Compound 25] | C (C=less than 20 fold)
15 | CC(C)c1cnn2c(NCc3c[nH]c4ccccc34)nc(N3CCC(N)CC3)nc12 [Compound 28] | B (B=less than 200 fold, but greater than 20 fold)

Same assay, conditions: CDK7 over CDK5

Row | SMILES | CDK5/CDK7: Selectivity of CDK7 inhibition over CDK5 inhibition
16 | CNC(=O)c1cccnc1CNc1nc(N2CCC(N)CC2)nc2c(C(C)(C)C)cnn12 [Compound 15] | B (B=less than 200 fold, but greater than 20 fold)
17 | CC(C)c1cnn2c(NCc3ccccc3-n3cccn3)nc([C@H]3CC[C@H](N)CC3)nc12 [Compound 25] | C (C=less than 20 fold)
18 | CC(C)c1cnn2c(NCc3c[nH]c4ccccc34)nc(N3CCC(N)CC3)nc12 [Compound 28] | C (C=less than 20 fold)

Results, then the molecule that gave them:

Row | CDK5/CDK7: Selectivity of CDK7 inhibition over CDK5 inhibition | SMILES
19 | C (C=less than 20 fold) | NC1CCN(c2nc(NCc3ccccc3-n3cccn3)n3ncc(C4CCCC4)c3n2)CC1 [Compound 12]
20 | C (C=less than 20 fold) | CC(C)c1cnn2c(NCc3cccc4ncn(C)c34)nc(N3CCC(N)CC3)nc12 [Compound 16]

Same assay, conditions: read-out: CDK7 enzymatic activity (IC50 range)

Row | SMILES | IC50
21 | CNC(=O)c1cccnc1CNc1nc(N2CCC(N)CC2)nc2c(C(C)(C)C)cnn12 [Compound 15] | < 0.1 µM
22 | CC(C)c1cnn2c(NCc3ccccc3-n3cccn3)nc([C@H]3CC[C@H](N)CC3)nc12 [Compound 25] | < 0.1 µM
23 | CC(C)c1cnn2c(NCc3c[nH]c4ccccc34)nc(N3CCC(N)CC3)nc12 [Compound 28] | < 0.1 µM

Further lines, results first:

Row | IC50 | SMILES
24 | < 0.1 µM | NC1CCN(c2nc(NCc3ccccc3-n3cccn3)n3ncc(C4CCCC4)c3n2)CC1 [Compound 12]
25 | < 0.1 µM | CC(C)c1cnn2c(NCc3cccc4ncn(C)c34)nc(N3CCC(N)CC3)nc12 [Compound 16]

Each molecule was assayed against T3, CDK5/p25 (Homo sapiens, UniProt Q00535) (assay: Enzymatic assay for CDK5 (FRET based LANCE Ultra kinase assay)). Conditions: read-out: CDK5 enzymatic activity (IC50 range).
T3 construct: purchased Invitrogen PR8543B
Assay type: biochemical
Procedure: as §1, §2

T3 sequence (Q00535 whole entry): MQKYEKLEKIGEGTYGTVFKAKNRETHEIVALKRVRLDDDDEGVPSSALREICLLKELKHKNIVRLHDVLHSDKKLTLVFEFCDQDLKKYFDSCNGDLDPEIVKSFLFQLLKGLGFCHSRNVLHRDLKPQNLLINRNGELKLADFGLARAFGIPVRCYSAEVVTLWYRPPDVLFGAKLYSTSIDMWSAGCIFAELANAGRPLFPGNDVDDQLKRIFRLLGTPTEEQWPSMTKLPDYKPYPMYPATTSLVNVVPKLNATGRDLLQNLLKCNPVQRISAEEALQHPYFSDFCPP
T3 sequence (Q15078 99-307 partner limits assumed): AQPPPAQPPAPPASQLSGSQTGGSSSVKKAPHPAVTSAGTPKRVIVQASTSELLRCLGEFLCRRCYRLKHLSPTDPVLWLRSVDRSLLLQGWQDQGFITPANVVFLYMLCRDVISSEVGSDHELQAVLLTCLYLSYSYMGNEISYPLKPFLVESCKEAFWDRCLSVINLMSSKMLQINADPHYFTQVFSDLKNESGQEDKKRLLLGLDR

Row | SMILES | IC50
26 | CNC(=O)c1cccnc1CNc1nc(N2CCC(N)CC2)nc2c(C(C)(C)C)cnn12 [Compound 15] | > 1 µM
27 | CC(C)c1cnn2c(NCc3ccccc3-n3cccn3)nc([C@H]3CC[C@H](N)CC3)nc12 [Compound 25] | < 0.1 µM
28 | CC(C)c1cnn2c(NCc3c[nH]c4ccccc34)nc(N3CCC(N)CC3)nc12 [Compound 28] | 0.1 to 1 µM

Other lines, results leading:

Row | IC50 | SMILES
29 | < 0.1 µM | NC1CCN(c2nc(NCc3ccccc3-n3cccn3)n3ncc(C4CCCC4)c3n2)CC1 [Compound 12]
30 | < 0.1 µM | CC(C)c1cnn2c(NCc3cccc4ncn(C)c34)nc(N3CCC(N)CC3)nc12 [Compound 16]

What follows are molecules tested against T4, CDK2/Cyclin A (Homo sapiens, UniProt P24941) (assay: Enzymatic assay for CDK2 (FRET based LANCE Ultra kinase assay)). Conditions: read-out: CDK2 enzymatic activity (IC50 range).
T4 construct: purchased Invitrogen PV6290
Assay type: biochemical
Procedure: as §1, §2

Row | SMILES | IC50
31 | CNC(=O)c1cccnc1CNc1nc(N2CCC(N)CC2)nc2c(C(C)(C)C)cnn12 [Compound 15] | > 1 µM
32 | CC(C)c1cnn2c(NCc3ccccc3-n3cccn3)nc([C@H]3CC[C@H](N)CC3)nc12 [Compound 25] | < 0.1 µM
33 | CC(C)c1cnn2c(NCc3c[nH]c4ccccc34)nc(N3CCC(N)CC3)nc12 [Compound 28] | 0.1 to 1 µM

The remaining lines, values ahead:

Row | IC50 | SMILES
34 | 0.1 to 1 µM | NC1CCN(c2nc(NCc3ccccc3-n3cccn3)n3ncc(C4CCCC4)c3n2)CC1 [Compound 12]
35 | 0.1 to 1 µM | CC(C)c1cnn2c(NCc3cccc4ncn(C)c34)nc(N3CCC(N)CC3)nc12 [Compound 16]

What follows are molecules tested on H460 (assay: Cellular H460 viability assay (CellTiter-Glo, 72 hours)). Conditions: Homo sapiens, NCI-H460.
Assay type: cell-based
Procedure: All cell lines were routinely tested for mycoplasma.
The effect of the CDK7 inhibitor to inhibit the growth of target cancer cells was evaluated through the 72 hours time period of viability assay. Briefly, the candidate cell line ware plated in 96 well plate at the following density of cells respectively. […] DMSO solvent without compound served as a control and final DMSO concentration less than 0.1%. After 72 hours of incubation at 37° C., 5% CO2 incubator, cells were analyzed for the viability using the CellTiter-Glo Luminescent Cell Viability Assay (Promega, Cat #G7570). All viability assays were performed in duplicate and Luminescence was read using an Envision (Perkin Elmer, USA). Data was analyzed using XLfit software.

Row | IC50 | SMILES
36 | < 1 µM | NC1CCN(c2nc(NCc3ccccc3-n3cccn3)n3ncc(C4CCCC4)c3n2)CC1 [Compound 12]
37 | < 1 µM | CC(C)c1cnn2c(NCc3cccc4ncn(C)c34)nc(N3CCC(N)CC3)nc12 [Compound 16]
38 | < 1 µM | CC(C)c1cnn2c(NCc3ccccc3-n3cccn3)nc([C@H]3CC[C@H](N)CC3)nc12 [Compound 25]
